Experimental data as given in patent US9657046B2, “Methods for the treatment and prevention of inflammatory diseases” (Children's Medical Center Corporation, priority 2010, dated 2017).

What was measured:
murine NKT cell lines = assay: Mouse NKT cell lines cocultured with BM-derived DCs, cytokine ELISA; type: cell-based; conditions: 48 hours
Method: (§1) In FIG. 7A, NKT cell lines were cocultured with BM-derived DCs (BMDCs) and α-GalCer (100 ng/ml), PI57 (10 μg/ml), or vehicle for 48 hours, with or without pre-incubation with anti-CD1d (10 μg/ml). IFN-γ was measured by ELISA. In FIG. 7B, murine NKT cell lines were cocultured as in 7A with BMDCs from WT, Cd1d^−/−, Myd88^−/−, or Trif^−/− mice. Cells were treated with α-GalCer (100 ng/ml), PI57 (2.5, 5, or 10 μg/ml), PBS30 (1, 2.5, or 5 μg/ml), or vehicle for 48 hours. IFN-γ and IL-4 were measured by ELISA. […] In FIG. 7D, mouse NKT cell lines were stained with PE-labeled CD1d tetramers of PI57 or α-GalCer at 4° C. for 45 minutes or 37° C. for 25 minutes, and with anti-TCRβ-APC antibody. Top: Lymphocytes were gated in the FSC/SSC window. Bottom: Percentage of CD1d tetramer+ cells. […] In FIG. 7G, CD1d Fc-coated Maxisorp plates were loaded with lipid and cultured with 5×10^4 NKT cells. IFN-γ was analyzed by ELISA after 24 hours. Data represent 3 or 5 independent experiments.
To establish mouse NKT cell lines, NKT cells were purified by a two-step sorting strategy using MACS. Spleen cells from BALB/c or BALB/c Vα14Jα18 Tg mice were depleted of T cells, B cells, granulocytes, macrophages and DCs by AutoMacs, then stained with PE conjugated-CD1d tetramer and FITC conjugated-anti-TCRβ mAb, and sorted using a MoFlo cell sorter (Dako). The purity of the sorted cells was >99%. To propagate the cells, sorted NKT cells were cultured in 96-well flat-bottom plates (1×10^5 cells/well) with 5×10^3 bone-marrow derived DC in the presence of murine IL-15 (Pepro Tech). Cells were subcultured and restimulated with fresh DCs once a week.
Mouse or human IL-4 and IFN-γ levels were measured by ELISA, as previously described (20). Mean values of triplicate cultures were shown. Data are representative of two or three independent experiments.

[1] = tested on: invariant Vα14 NKT cell hybridomas; assay: Invariant Vα14 NKT cell hybridomas with glycolipid-loaded immobilized CD1d, IL-2; type: cell-based, mouse; conditions: immobilized recombinant CD1d loaded with glycolipid; three hybridomas (RT2, RT23, RT24)
Method: as §1
NKT cell hybridomas were established from C57BL/6 thymic NKT cells by fusion with thymoma BW5147 as previously described (61).
Culture wells were coated with recombinant CD1/β2m dimer proteins (Becton Dickinson) according to the manufacture's protocols. […] Cytokines in the culture supernatants were determined by ELISA.

adult mice = assay: Ozone-exposure model, pre-treatment of adult mice; type: in vivo, mouse; conditions: pre-treatment prior to ozone-exposure
human NKT cell lines = assay: Human NKT cell lines, IFN-γ and IL-4 production; type: cell-based; conditions: PI57 10 μg/ml, 48 hours in vitro
Method: as §1
Human NKT cells were isolated from peripheral blood of normal volunteers, using a PE-conjugated anti-human NKT cell antibody (clone 6B11, which recognizes the CDR3 loop of the conserved Vα24 TCR found on iNKT cells) (BD Pharmingen) and anti-PE MACS beads (Miltenyi Biotec). Cells retained on the MACS column were then eluted. […]
Mouse or human IL-4 and IFN-γ levels were measured by ELISA, as previously described (20). […]

NKT cell clone BM2a.3 = assay: Human NKT cell clone BM2a.3 with CD1d-transfected cells, IFN-γ; type: cell-based
Method: as §1
CD1d transfected K562 cells and CD1d restricted human NKT cell clone BM2a.3 were previously described (62). The anti-CD1d antibody (clone 12.1.1.1) experiments have been performed as described (63).

`CCCCCCCCCCCCCC(=O)OC[C@H]1O[C@H](O[C@H]2CC[C@@]3(C)C(=CC[C@H]4[C@@H]5CC[C@H]([C@H](C)CCCC(C)C)[C@@]5(C)CC[C@@H]43)C2)[C@H](O)[C@@H](O)[C@@H]1O` [PI57, Cholesteryl 6-O-tetradecanoyl-α-D-glucopyranoside] was tested, and the “cytokine production with DCs from CD1d−/− mice” value (murine NKT cell lines; BMDCs from Cd1d−/− mice) was “failed to support PI57 induced cytokine production”, the “cytokine production with DCs from MyD88−/− or Tri−/− mice” value (murine NKT cell lines; BMDCs from Myd88−/− or Trif−/− mice) was “induced cytokine production” and the “IFN-γ production by NKT cell lines + dendritic cells” value (murine NKT cell lines; PI57 10 μg/ml, BMDCs) was “induced the production of IFN-γ in a CD1d-restricted manner”. The “cytokine (IFN-γ) production after pre-incubation with anti-CD1d mAb” value (murine NKT cell lines; PI57 10 μg/ml, anti-CD1d 10 μg/ml) was “blocked”, the “IFN-γ and IL-4 production compared to PBS30 or α-GalCer” value (murine NKT cell lines; WT BMDCs, PI57 2.5, 5 or 10 μg/ml) was “induced IFN-γ and less IL-4” and the “IL-2 production by Vα14 NKT cell hybridomas” value [1] was “produced IL-2”. For the same molecule, the “airway hyperreactivity after ozone exposure” value (adult mice) was “inhibit or suppress airway hyperreactivity”, the “lung inflammation after ozone exposure” value (adult mice) was “inhibit or suppress airway hyperreactivity and lung inflammation” and the “activation of human NKT cell lines (IFN-γ and IL-4 production)” value (human NKT cell lines) was “activated”. The “response (IFN-γ production) of Vα24+ NKT cell clone BM2a.3” value (NKT cell clone BM2a.3) was “responded to this glycolipid”.
